Assay results taken from US8680092B2, “Nitrogenous heterocyclic compound and medicinal use thereof” (Ono Pharmaceutical Co., Ltd., priority 2005, dated 2014).

Target: T1, CXCR4 (Homo sapiens, UniProt P61073)
T1 construct: a human T cell strain in which CXCR4 is known to be expressed; endogenous in cells; host or cells: CEM cells (human T cell strain)
Test: Study for inhibition of binding human SDF-1 to CEM cells
Conditions: human T cell strain CEM cells, 125I-SDF-1, 4° C. for 60 minutes
From the text: As mentioned above, a more direct procedure is a screening a compound that prevents for HIV from binding to CXCR4, which is a receptor on CD4+ cell, on an assay system using HIV. However, using HIV for a large-scale screening is not practical due to its difficult handling. On the other hand, both of T cell-directed (X4) HIV-1 and SDF-1 bind to CXCR4 and therefore CXCR4 binding sites at both of HIV-side and SDF-1-side as well as SDF-1- and HIV-binding sites at the CXCR4 side may presumably have any common characteristics. […]
To human T cell strain CEM cells in a binding buffer (containing HEPES and BSA), the test compound and ^125I-SDF-1 (NEN) were added and the mixture was incubated at 4° C. for 60 minutes. […] An amount of the radioactivity bound to the CEM cells was measured using Top Count (Packard) and inhibition (%) of the test compound was calculated according to the following equation: Inhibition=(Et−Ea)/(Et−Ec)×100
Et: amount of radioactivity when the test compound is not added,
Ec: amount of radioactivity when non-radioactive SDF-1 (Pepro Tech) is added in an amount of 1000 times as much as ^125I-SDF-1 as a test compound, and
Ea: amount of radioactivity when the test compound is added.

T1 sequence (P61073 whole entry): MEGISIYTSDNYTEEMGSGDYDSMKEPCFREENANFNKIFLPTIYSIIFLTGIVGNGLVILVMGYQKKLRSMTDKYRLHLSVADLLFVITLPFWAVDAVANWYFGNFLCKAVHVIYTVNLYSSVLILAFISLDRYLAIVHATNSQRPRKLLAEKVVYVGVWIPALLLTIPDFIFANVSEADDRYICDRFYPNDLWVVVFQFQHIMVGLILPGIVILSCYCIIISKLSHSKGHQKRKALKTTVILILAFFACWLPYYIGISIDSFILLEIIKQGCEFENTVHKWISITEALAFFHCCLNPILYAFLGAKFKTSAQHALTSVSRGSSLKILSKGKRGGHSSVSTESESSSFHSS

Structure (SMILES): NCCC[C@@H]1[C@@H](Nc2nccc(N3CCCCCC3)n2)CCN1C1CCCCC1 [compound 10-2, N-[(2R,3S)-2-(3-aminopropyl)-1-cyclohexyl-3-pyrrolidinyl]-4-(1-azepanyl)-2-pyrimidinamine]
- IC50: 1.6 nM
